Here are results for 3 compounds from publication PMC9127232, “Wound Healing Properties of Jasione montana Extracts and Their Main Secondary Metabolites” (Frontiers in Pharmacology, 2022).

Each structure is given as a SMILES string.

For one data set, the system named is dermal fibroblast cells. Further details: method as in Juszczak et al., 2021. Particulars: ref Juszczak et al., 2021; cited from earlier work.
Data set [1] has as its system collagen type I in fibroblast cells (PCS-201-012). In words: Collagen type I biosynthesis by flow cytometry. The format is cell-based, human. Particulars: for collagen type I content, median fluorescence intensity (MFI): 300 μg/mL, 24 h, control 1,507 ± 9.2. How it is done: The normal human dermal fibroblast cell line (PCS-201-012) was cultured in DMEM blended with 10% fetal bovine serum (FBS), 10 μg/mL streptomycin, and 10 units/mol penicillin. The cells were cultured in 5% CO2 and fully humidified at 37°C. All tested compounds were dissolved at a final vehicle (DMSO) concentration of not more than 0.5% (v/v). Cells cultured in drug-free DMEM were used as controls, and cells treated with DMSO alone were used as solvent controls. All extracts (JM1–JM6) and the main components of the tested extracts (9, 12, and 22) were analyzed at the following concentrations: 10, 25, 50, 100, 200, and 300 μg/mL. The effect of the tested extracts and fractions (JM1–JM6), as well as their main compounds (9, 12, and 22) on collagen type I biosynthesis was determined using a method of cytometric staining of the surface anti-collagen type I according to the manufacturer’s protocols. Fibroblasts were incubated for 24 h at 37°C with the test samples at concentrations of 10, 25, 50, 100, 200, and 300 μg/mL. Allantoin (50 μg/mL) was used as a positive control. After incubation, fibroblasts were washed with PBS, trypsinized, resuspended in DMEM and centrifuged (1,200 rpm, 10 min, 4°C). The supernatant was removed, and the cells were washed with 2 mL of stain buffer. Then, the cells were incubated for 30 min on ice with 100 µL of stain buffer and 1 µL of antibody. After complete incubation, 2 mL of stain buffer was added. After consecutive centrifugation (1,200 rpm, 10 min, 4°C), the supernatant was removed, the cells were resuspended in 300 µL of buffer and then immediately subjected to analysis on a flow cytometer (BD FACSCanto II flow cytometer, San Jose, CA, United States) calibrated with BD Cytometer Setup and Tracking beads (BD Biosciences, San Diego, CA, United States). The median fluorescence intensity was calculated using FACSDiva software (BD Biosciences Systems, San Jose, CA, United States) and analyzed by FCS Express 7 software (DeNovo Software, Pasadena, CA, United States).
In general terms: A flow cytometer gives signals particle by particle.

Data set [2] relates to IL-6 in fibroblast cells (PCS-201-012). Nature of the data set: Cytometric Bead Array, IL-6 secretion. Format: cell-based, human. To be noted: 24 h. How it is done: (§1) The normal human dermal fibroblast cell line (PCS-201-012) was cultured in DMEM blended with 10% fetal bovine serum (FBS), 10 μg/mL streptomycin, and 10 units/mol penicillin. The cells were cultured in 5% CO2 and fully humidified at 37°C. All tested compounds were dissolved at a final vehicle (DMSO) concentration of not more than 0.5% (v/v). Cells cultured in drug-free DMEM were used as controls, and cells treated with DMSO alone were used as solvent controls. All extracts (JM1–JM6) and the main components of the tested extracts (9, 12, and 22) were analyzed at the following concentrations: 10, 25, 50, 100, 200, and 300 μg/mL. The effect of the tested extracts and fractions (JM1–JM6) as well as 9, 12, and 22 on cytokine (IL-1β, IL-6 IL-8, IL-10, IL-12p70 and TNF) secretion was determined using the Cytometric Bead Array (CBA) Human Inflammatory Cytokine Kit according to the manufacturer’s protocols. After 24 h of incubation with the test samples at concentrations of 10, 25, 50, 100, 200, and 300 μg/mL, fibroblast cells were washed with PBS, trypsinized, resuspended in DMEM and centrifuged (1,200 rpm, 10 min, 4°C). The supernatant was then replaced with 50 μL of assay diluent with the addition of 50 μL of assay beads and 50 μL of PE-labeled antibodies (detection reagent) from the human inflammatory cytokine kit. Incubation was performed for 3 h at room temperature without daylight, after which the fibroblast cells were washed and centrifuged (1,200 rpm, 5 min, 4°C). The cell pellet was resuspended in 300 μL of wash buffer and then immediately subjected to analysis by FCAP Array v3 software on a BD FACSCanto II flow cytometer (both from BD Biosciences Systems, San Jose, CA, United States) calibrated with BD Cytometer Setup and Tracking beads (BD Biosciences, San Diego, CA, United States).

Data set [3] relates to IL-1β in fibroblast cells (PCS-201-012). In words: Cytometric Bead Array, IL-1β secretion. Particulars: for IL-1β: BSR = below the standard range (lower than detection limit). Format: cell-based, human. How it is done: as §1

For `O=c1cc(-c2ccc(O)c(O)c2)oc2cc(O[C@@H]3O[C@H](CO)[C@@H](O)[C@H](O)[C@H]3O)cc(O)c12` [Compound 12, luteolin 7-O-β-D-glucoside], the “cytotoxicity on dermal fibroblast cells (in words)” value in the data set on dermal fibroblast cells is recorded as “did not show strong cytotoxicity”. In data set [1], the “collagen type I content, median fluorescence intensity (MFI)” value came out at 1717 ± 10.6. The “concentration at which the highest increase in IL-6 secretion occurred” value in data set [2] was determined as 100 µg/mL.
For the compound `O=c1cc(-c2ccc(O)c(O)c2)oc2cc(O)cc(O)c12` [Compound 22, 5,7,3',4'-tetrahydroxyflavone], the “cytotoxicity on dermal fibroblast cells (in words)” value with dermal fibroblast cells was “toxicity at the higher concentrations tested”. Further, the “collagen content in fibroblast cells (in words)” value in data set [1] (10 μg/mL) is recorded as “decrease in collagen content”. Besides, the “IL-6 expression levels (in words)” value in data set [2] (10–300 μg/mL, vs untreated control) is “dose-dependent decrease”. The compound also returned an IL-1β level in data set [3] (100 μg/mL, 24 h, control 13.4 ± 5.6 pg/mL) of 1.7 ± 1.1 pg/mL. The IL-1β entry in data set [3] (200 μg/mL) and in data set [3] (300 μg/mL) was “BSR” in each case. For the same compound, in data set [3] (200–300 μg/mL, 24 h), the “IL-1β expression (in words)” value is “below the sensitivity of the method”. In data set [3] (all tested concentrations 10–300 μg/mL, 24 h), the “secretion of IL-1β (in words)” value was “highest decrease”.
Consider `O=c1cc(-c2ccc(O)c(O)c2)oc2cc(O[C@@H]3O[C@H](CO)[C@@H](O)[C@H](O)[C@H]3O[C@@H]3OC[C@@H](O)[C@H](O)[C@H]3O)cc(O)c12` [Compound 9, luteolin 7-O-β-D-xylosyl-(1-2)-β-D-glucoside], for which, in data set [1], the “collagen type I content, median fluorescence intensity (MFI)” value turned out to be 1763 ± 58. Besides, the “concentration at which the highest increase in IL-6 secretion occurred” value in data set [2] was determined as 100 µg/mL.
